According to publication PMC5578959, “Selective LRRK2 kinase inhibition reduces phosphorylation of endogenous Rab10 and Rab12 in human peripheral mononuclear blood cells” (Scientific Reports, 2017):
Like-named read-outs stand apart in the source and are kept apart here.

What was measured:
total LRRK2 = tested on: T1, total LRRK2; test: Western Blot, cultured immune stimulated human PBMCs; format: cell-based; conditions: 100 nM; 24hr; PMA/INF-γ stimulated PBMCs, 3 DIV
T1 construct: human primary cells expressing endogenous levels of LRRK2; endogenous in cells; host or cells: human PBMCs from healthy donors

JAK2 domain2 = tested on: T2, JAK2 domain2; test: KiNativ profiling in human PBMCs; format: binding; conditions: Activation Loop
T2 construct: JAK2 domain2; purchased ActivX Technologies (KiNativ)
Summary of the method: (§1)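 Compound was applied to living PBMCs at 0.1 µM or 1 µM. Occupancy of kinases was then assessed by KiNativ.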

MARK3,MARK4,QIK = test: KiNativ profiling in human PBMCs; format: binding; conditions: Lys1
Summary of the method: as §1

SGK,SGK2,SGK3 = test: KiNativ profiling in human PBMCs; format: binding; conditions: Lys1
Summary of the method: as §1

LRRK2-pSer935 = target: T3, LRRK2-pSer935 (Homo sapiens, UniProt Q5S007); test: Acute inhibition, Western Blot, non-stimulated human PBMCs; format: cell-based
T3 construct: human primary cells expressing endogenous levels of LRRK2; endogenous in cells; host or cells: human PBMCs from healthy donors
T3 sequence (Q5S007 whole entry): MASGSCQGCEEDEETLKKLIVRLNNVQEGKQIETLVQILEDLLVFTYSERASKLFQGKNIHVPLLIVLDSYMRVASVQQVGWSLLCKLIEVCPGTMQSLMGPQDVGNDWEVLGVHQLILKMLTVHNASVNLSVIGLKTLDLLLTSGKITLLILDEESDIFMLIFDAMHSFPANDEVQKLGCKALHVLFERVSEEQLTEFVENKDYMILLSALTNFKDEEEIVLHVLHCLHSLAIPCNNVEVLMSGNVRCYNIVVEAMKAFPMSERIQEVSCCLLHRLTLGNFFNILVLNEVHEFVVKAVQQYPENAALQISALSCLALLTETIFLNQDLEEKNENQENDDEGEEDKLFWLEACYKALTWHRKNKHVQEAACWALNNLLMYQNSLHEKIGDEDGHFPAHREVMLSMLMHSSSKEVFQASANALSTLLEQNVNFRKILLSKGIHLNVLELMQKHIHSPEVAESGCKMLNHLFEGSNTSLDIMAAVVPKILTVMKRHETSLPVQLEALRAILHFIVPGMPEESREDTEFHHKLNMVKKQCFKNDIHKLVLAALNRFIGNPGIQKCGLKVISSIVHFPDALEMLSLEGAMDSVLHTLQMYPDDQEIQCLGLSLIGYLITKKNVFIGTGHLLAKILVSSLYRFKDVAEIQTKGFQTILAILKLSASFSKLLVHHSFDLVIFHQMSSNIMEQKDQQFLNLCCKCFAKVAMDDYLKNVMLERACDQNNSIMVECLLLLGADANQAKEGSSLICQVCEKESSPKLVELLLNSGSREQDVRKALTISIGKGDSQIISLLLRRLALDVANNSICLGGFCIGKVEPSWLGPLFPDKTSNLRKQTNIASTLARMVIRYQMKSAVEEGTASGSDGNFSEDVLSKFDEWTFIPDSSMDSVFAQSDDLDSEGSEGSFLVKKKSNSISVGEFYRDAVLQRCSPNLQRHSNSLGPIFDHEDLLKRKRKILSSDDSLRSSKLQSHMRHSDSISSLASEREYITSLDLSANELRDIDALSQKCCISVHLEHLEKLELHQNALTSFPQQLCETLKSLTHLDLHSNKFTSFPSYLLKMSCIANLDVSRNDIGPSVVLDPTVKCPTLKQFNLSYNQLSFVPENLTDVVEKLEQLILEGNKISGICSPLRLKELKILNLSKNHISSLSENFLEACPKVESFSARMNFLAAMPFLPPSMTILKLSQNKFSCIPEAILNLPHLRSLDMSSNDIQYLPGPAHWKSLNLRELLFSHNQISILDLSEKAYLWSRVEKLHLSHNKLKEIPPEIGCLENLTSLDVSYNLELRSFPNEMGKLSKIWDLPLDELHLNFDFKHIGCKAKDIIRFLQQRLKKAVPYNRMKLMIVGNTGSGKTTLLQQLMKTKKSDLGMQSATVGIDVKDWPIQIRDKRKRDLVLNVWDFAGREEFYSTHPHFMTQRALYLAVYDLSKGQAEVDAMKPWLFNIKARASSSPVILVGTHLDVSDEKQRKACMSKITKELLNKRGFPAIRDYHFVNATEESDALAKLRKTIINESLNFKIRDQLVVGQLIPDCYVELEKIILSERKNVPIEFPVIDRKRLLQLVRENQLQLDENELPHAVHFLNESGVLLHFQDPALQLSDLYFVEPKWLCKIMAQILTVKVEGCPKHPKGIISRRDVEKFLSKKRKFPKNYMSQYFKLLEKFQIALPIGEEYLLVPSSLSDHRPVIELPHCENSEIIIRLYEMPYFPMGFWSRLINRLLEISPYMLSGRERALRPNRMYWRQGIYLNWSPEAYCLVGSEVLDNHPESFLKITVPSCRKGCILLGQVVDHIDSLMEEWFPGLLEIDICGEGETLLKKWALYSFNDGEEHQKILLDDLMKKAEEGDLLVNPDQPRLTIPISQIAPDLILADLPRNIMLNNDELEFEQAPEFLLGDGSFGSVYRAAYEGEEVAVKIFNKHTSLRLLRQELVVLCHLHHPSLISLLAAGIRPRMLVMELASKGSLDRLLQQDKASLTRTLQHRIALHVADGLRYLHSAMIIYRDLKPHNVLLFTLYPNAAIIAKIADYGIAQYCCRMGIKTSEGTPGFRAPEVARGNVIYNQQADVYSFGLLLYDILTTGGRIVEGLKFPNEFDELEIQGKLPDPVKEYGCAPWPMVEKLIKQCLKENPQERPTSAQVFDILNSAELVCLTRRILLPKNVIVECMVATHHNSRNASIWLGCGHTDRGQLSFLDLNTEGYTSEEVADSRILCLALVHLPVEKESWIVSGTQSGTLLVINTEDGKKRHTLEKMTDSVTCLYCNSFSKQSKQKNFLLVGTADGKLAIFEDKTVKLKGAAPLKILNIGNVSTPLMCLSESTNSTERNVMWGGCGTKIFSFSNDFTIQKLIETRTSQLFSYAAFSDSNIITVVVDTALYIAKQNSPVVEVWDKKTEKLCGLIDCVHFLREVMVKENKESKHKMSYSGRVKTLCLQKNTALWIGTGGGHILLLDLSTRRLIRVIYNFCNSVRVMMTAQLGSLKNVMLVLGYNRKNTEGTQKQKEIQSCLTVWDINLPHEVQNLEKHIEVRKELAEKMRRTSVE
Experimental: (§2) HEK293 cells were plated at a density of 1 × 10^6 cells/well in 6-well plates pre-coated for 1 hr at 37 °C with poly-L-lysin. Subsequent to the transient transfection HEK293 cells were harvested using 1 mL cold Phosphate Buffered Saline (PBS) buffer (Invitrogen, California, US) and subsequently centrifuged at 800 g for 2 minutes. Cell pellets were resuspended and solubilized in 100 µL lysis buffer (50 mM Tris hydrochloride, 1 mM magnesium chloride, 1% Triton, 0.1% sodium dodecyl sulfate (SDS), pH 8.0) on ice for 20 minutes and then centrifuged at 20,000 g for 30 minutes at 4 °C. The solubilized crude cell lysate was size mobility separated by SDS-polyacrylamide gel electrophoresis (SDS-PAGE). LRRK2 was separated on a 3–8% Tris-Acetate gel (NuPAGE® Tris-Acetate Mini Gels, Life Technologies, Paisley, UK) and Rab10 and Rab12 were separated using a NuPAGE® Novex 4–12% Bis-Tris Gel (Invitrogen, California, US). An amount of 10 µg total protein was loaded in each well. Proteins were transferred to immobilon-FL PVDF membranes (Millipore, Billerica, US). Membranes were incubated with primary antibodies overnight at 4 °C: mouse monoclonal [N241A/34] anti-LRRK2 antibody (1:2,000; NeuroMab, California, US), rabbit monoclonal [UDD2 10(12)] anti-pS935-LRRK2 antibody (1:1,000; RabMAb®, Abcam, Cambridge, UK), mouse anti-HA monoclonal antibody [clone HA-7] (1:10,000; Santa Cruz Biotechnology, Texas, US), rabbit anti-Rab10-pThr73 polyclonal [#5981] (1:2,000; H. Lundbeck A/S, DK) and rabbit anti-Rab12-Ser106 polyclonal antibody [#5919] (1:5,000; H. Lundbeck A/S, DK). Subsequently, the membranes were washed and incubated with secondary antibodies for 1 hour at room temperature: Anti-rabbit IgG F(c) (GOAT) antibody IRDye® 800CW Conjugated (1:10,000; Rockland Immunochemicals Inc., Gilbertsville, US) and anti-mouse Alexa Fluor® 680 Goat anti-mouse IgM (1:20,000; Life Technologies, Paisley, UK). The proteins were visually detected by infrared imaging using Odyssey CLx (LI-COR, Nebraska, US). Membranes were scanned and band intensities were quantified using the Image Studio version 3.1.4 (LI-COR, Nebraska).
(§3) PBMCs were isolated using the density gradient medium, Lymphoprep™ from Stemcell Technologies (Vancouver, Canada) following their standard protocol. Briefly, 4 ml blood was diluted with 4 ml PBS and applied at the SepMate™ tubes (Stemcell Technologies) and spun at 1200xg for 20 min at RT in the centrifuge without brakes. The PBMC layer was collected and spun at 600xg for 8 min and washed two times in PBS by spinning at 600xg between each wash. After the last wash, the cells were counted and the cellular concentration was adjusted to 50 × 10^6 cells/ml in PBS. Donor samples were treated with the LRRK2 inhibitor PFE-360 for one hour and the cells were hereafter lysed by adding 1/10 volume lysis buffer (5% Triton-X, 5% Digitonin, 10 mM EDTA) containing phosphatase and protease inhibitor cocktail (Roche Diagnostics, Mannheim, Germany). The lysates from human PBMCs were subjected to SDS-PAGE and Western Blotting procedures as described above.

Rab10-pThr73 = test: as above; format: cell-based
Experimental: as §2, §3

AMPKa1,AMPKa2 = test: KiNativ profiling in human PBMCs; format: binding
Summary of the method: as §1

AMPKa1 = tested on: T4, AMPKa1; test: KiNativ profiling in human PBMCs; format: binding; conditions: ATP Loop
T4 construct: purchased ActivX Technologies (KiNativ)
Summary of the method: as §1

MAPKAPK3 = tested on: T5, MAPKAPK3; test: KiNativ profiling in human PBMCs; format: binding; conditions: ATP Loop
T5 construct: purchased ActivX Technologies (KiNativ)
Summary of the method: as §1

ATR = tested on: T6, ATR; test: KiNativ profiling in human PBMCs; format: binding; conditions: ATP
T6 construct: purchased ActivX Technologies (KiNativ)

CLK3 = tested on: T7, CLK3; test: KiNativ profiling in human PBMCs; format: binding; conditions: ATP Loop
T7 construct: purchased ActivX Technologies (KiNativ)

ITK = tested on: T8, ITK; test: KiNativ profiling in human PBMCs; format: binding; conditions: Activation Loop
T8 construct: purchased ActivX Technologies (KiNativ)

MAP2K2 = tested on: T9, MAP2K2; test: KiNativ profiling in human PBMCs; format: binding; conditions: Lys2
T9 construct: purchased ActivX Technologies (KiNativ)

MAP3K3 = tested on: T10, MAP3K3; test: KiNativ profiling in human PBMCs; format: binding; conditions: Lys1
T10 construct: purchased ActivX Technologies (KiNativ)

PDHK1 = tested on: T11, PDHK1; test: KiNativ profiling in human PBMCs; format: binding; conditions: ATP
T11 construct: purchased ActivX Technologies (KiNativ)

PKCd = tested on: T12, PKCd; test: KiNativ profiling in human PBMCs; format: binding; conditions: Lys2
T12 construct: purchased ActivX Technologies (KiNativ)

SRPK1 = tested on: T13, SRPK1; test: KiNativ profiling in human PBMCs; format: binding; conditions: Lys2
T13 construct: purchased ActivX Technologies (KiNativ)

CHED = conditions: Lys2
[1] = 2 µM, 1hr, non-stimulated PBMCs, n = 6 donors
[2] = non-stimulated human PBMCs, 1 hour, n = 3

SMILES: Cc1cccc(-c2cc(Nc3ccn(C)n3)nc3[nH]cc(C#N)c23)c1 [Lu AF58786]
- total LRRK2 protein levels (total LRRK2): significantly lowers
- Inhibition (JAK2 domain2; 0.1µM): 16.1%
- Inhibition (JAK2 domain2; 1µM): -3.5%
- Inhibition (MARK3,MARK4,QIK; 0.1µM): 3.0%
- Inhibition (MARK3,MARK4,QIK; 1µM): 5.7%
- Inhibition (SGK,SGK2,SGK3; 0.1µM): 7.0%
- Inhibition (SGK,SGK2,SGK3; 1µM): 0.243%

SMILES: Cn1cc(-c2c[nH]c3ncnc(N4CCOCC4)c23)cc1C#N [PFE-360]
- LRRK2 inhibition (LRRK2-pSer935; 2 µM, 1hr, non-stimulated PBMCs): full LRRK2 inhibition
- LRRK2-pSer935 levels vs PBS-treated PBMC samples (LRRK2-pSer935; [1]): significantly lower
- IC50 (LRRK2-pSer935; [2]): 24 nM
- pIC50 ± SEM, LRRK2-pSer935 (LRRK2-pSer935; [2]): 7.6 ± 0.3 (n = 3)
- Rab10-pThr73 levels vs PBS-treated PBMC samples (Rab10-pThr73; [1]): significantly lower
- IC50 (Rab10-pThr73; [2]): 12 nM
- pIC50 ± SEM, Rab10-pThr73 (Rab10-pThr73; [2]): 7.9 ± 0.3 (n = 3)
- % Inhibition (AMPKa1,AMPKa2; 0.1µM, Lys1): 0.8%
- % Inhibition (AMPKa1,AMPKa2; 0.1µM, Lys2): -17.7%
- % Inhibition (AMPKa1,AMPKa2; 1µM, Lys1): -2.7%
- % Inhibition (AMPKa1,AMPKa2; 1µM, Lys2): 7.4%
- % Inhibition (AMPKa1; 0.1µM): -1%
- % Inhibition (AMPKa1; 1µM): 4%
- % Inhibition (MAPKAPK3; 0.1µM): -5.1%
- % Inhibition (MAPKAPK3; 1µM): -8.3%
- % Inhibition (ATR; 0.1µM): -25.8%
- % Inhibition (ATR; 1µM): 10.7%
- % Inhibition (CLK3; 0.1µM): 3.8%
- % Inhibition (CLK3; 1µM): -6.8%
- % Inhibition (ITK; 0.1µM): 3.5%
- % Inhibition (ITK; 1µM): -4.7%
- % Inhibition (MAP2K2; 0.1µM): -11.4%
- % Inhibition (MAP2K2; 1µM): 20.4%
- % Inhibition (MAP3K3; 0.1µM): 18.3%
- % Inhibition (MAP3K3; 1µM): 16.1%
- % Inhibition (PDHK1; 0.1µM): -3.7%
- % Inhibition (PDHK1; 1µM): -3%
- % Inhibition (PKCd; 0.1µM): 3.5%
- % Inhibition (PKCd; 1µM): -0.6%
- % Inhibition (SRPK1; 0.1µM): 12.7%
- % Inhibition (SRPK1; 1µM): -13.2%
- % Inhibition (CHED; 0.1µM): 4.9%
- % Inhibition (CHED; 1µM): -1.5%
